Data published in patent US20220362386A1, “LIQUID COMPOSITIONS COMPRISING A LEVODOPA AMINO ACID CONJUGATE AND USES THEREOF” (NeuroDerm, Ltd., priority 2019, published 2022).
Where a name gives a salt, the structure may show the parent alone. Read-outs that look alike come from different tables or passages of the source. Non-standard residues stand in square brackets, D forms with d. Residues, ends and D or L forms follow the SMILES beside them. Dopa = N[C@@H](Cc1ccc(O)c(O)c1)C(=O)O

What was measured:
human plasma [1] = assay: Protein binding, solid phase extraction (SPE) method; format: in vitro ADME; conditions: 1.0E−05M; SPE sample preparation
Experimental: (§1) A solid phase extraction (SPE) method was used to prepare samples for several compounds in the plasma protein binding assay. The following SPE protocols were followed:
(§2) Sorbent: Waters Oasis MCX 96—well MicroElution Plate—Cat #186001830BA Sample: 200 μL of plasma spiked at 10 μM with test compound. Sample was diluted 1:1 with 4% phosphoric acid in water and mixed for 15 minutes 1) Place Oasis plate on vacuum manifold and set vacuum to 5″ Hg; 2) Condition with 200 μL methanol; 3) Equilibrate with 200 μL water; 4) Load dilute plasma sample; 5) Wash with 200 μL 2% formic acid in water; 6) Wash with 400 μL methanol; and 7) Elute with 100 μL 5% NH4OH in methanol.
as §2, with “MAX 96-well” for “MCX 96—well”, “plate—Cat #186001829” for “Plate—Cat #186001830BA”, “5% NH4OH” for “2% formic acid”, “2% formic acid” for “5% NH4OH”

[2] = as above; format: in vitro ADME, human; conditions: human, human plasma, 1.0E−05M, SPE sample preparation
Experimental: as §1, §2
as §2, with “MAX 96-well” for “MCX 96—well”, “plate—Cat #186001829” for “Plate—Cat #186001830BA”, “5% NH4OH” for “2% formic acid”, “2% formic acid” for “5% NH4OH”

human plasma [3] = assay: Protein binding, equilibrium dialysis method; format: in vitro ADME; conditions: 1.0E-05M; 37° C., 4 h
Experimental: (§3) The protein binding values of various LDAA compounds in their TFA salt form (10^−5M) were tested in human plasma. The equilibrium dialysis technique was used to separate the fraction of the test compound that was unbound from the fraction of the test compound that bound to proteins during the test. The test was performed on 96-well plates in a dialysis block constructed from Teflon™.
(§4) The protein containing matrix used was human plasma, wherein the assay matrix was human serum albumin and alpha-1 acid glycoprotein. The protein matrix was spiked with each test compound at 10 μM (by default, n=2) with a final DMSO concentration of 1%. The dialysate compartment is loaded with phosphate buffered saline (PBS, pH 7.4), and the sample compartment was loaded with an equal volume of the spiked protein matrix. The dialysis plate was then sealed and incubated at 37° C. for 4 h.
(§5) Following the incubation, samples were taken from each compartment, diluted with PBS followed by the addition of acetonitrile, after which the samples were centrifuged. The supernatants were collected and analyzed by HPLC-MS/MS. The HPLC tests included a binary LC pump with an autosampler, a C18 column (2×20 mm), and gradient elution. The HPLC conditions were adjusted when necessary.
(§6) A control sample (n=2) was prepared from the spiked protein matrix in the same manner; however, no dialysis was performed on the control. It is noted that the control sample served as the bases for the recovery determination.
(§7) Acebutolol, quinidine, and warfarin were used in each assay as reference compounds, wherein it is known that those reference compounds provide low, medium and high human plasma protein binding values, respectively.
(§8) The % of the tested compound that is bound to proteins and the recovery values were calculated as follows:
(§9) Protein binding (%)=100×(Areap−Areab)/Areap
(§10) Recovery (%)=100×(Areap−Areab)/Areac
(§11) The determination of the recovery % serves as an indicator of reliability of the calculated protein binding value. […] This is most likely due to non-specific binding or degradation of the test compound. It is noted that a recovery of above 60% is considered to be reliable, while under 60% recovery, the results of the test are considered to be unreliable.

[4] = Protein binding, equilibrium dialysis method; format: in vitro ADME, human; conditions: human, human plasma, pH 7.4, 1.0E-05M
Experimental: as §3, §4, §5, §6, §7, §8, §9, §10, §11

in vitro = conditions: human
Experimental: Caco-2 cells are human intestinal epithelial cells derived from a colorectal adenocarcinoma.
The assays are performed in both the apical to basolateral (A-B) and the B-A direction. The test compound is prepared at 10 μM in HBSS-HEPES (pH 7.4) with a final DMSO concentration of 1%. The working solution is centrifuged, and the supernatant is added to the donor side. The assay plate is incubated at 37° C. with gentle shaking for 60 min or 40 min for the A-B or B-A assay, respectively. For Pgp substrate assessment, the assays are run with and without 100 μM verapamil on both the A and B sides. For BCRP substrate assessment, the assays are run with and without 10 μM Ko143 on both the A and B sides. For MRP2 substrate assessment, the assays are run with and without 100 μM MK571 on both the A and B sides. Samples are aliquoted from the donor side at time zero and the end point, and from the receiver side at the end point.
Propranolol (highly permeable), labetalol (moderately permeable), ranitidine (poorly permeable), and colchicine (P-glycoprotein substrate), estrone-3-sulfate (BCRP substrate), or CDCF (MRP2 substrate) are included in each assay.
Samples are analyzed by HPLC-MS/MS using selected reaction monitoring. The HPLC system consists of a binary LC pump with an autosampler, a C-18 column, and a gradient. Conditions may be adjusted when necessary.
Fluorescein permeability is assessed in the A-B direction at pH 7.4 on both sides after the permeability assay with the test compound. The cell monolayer with a fluorescein permeability of less than 1.5×10−6 cm/s is considered intact.
The apparent permeability coefficient (Papp) of the test compound and its recovery are calculated as follows: […]
A is the surface area of the cell monolayer (0.11 cm^2). C is concentration of the test compound, expressed as peak area. D denotes donor and R is receiver. 0, mid, and end denote time zero, mid-point, and end of the incubation. Δt is the incubation time. V is the volume of the donor or receiver.
The permeability capabilities of the several LDAA compounds, in their TFA salt form, were determined using the Caco-2 B-A method.

[5] = Human blood stability test; format: in vitro ADME; parameters: key: slope of % decrease of remaining compound over time; higher = faster metabolism; conditions: slope of the percentage decrease of remaining compound; substrate 10 μM; 0-60 minutes
Experimental: The stability of several LDAA compounds in human blood was tested. The substrate concentration was 10 μM and the incubation time 0, 5, 15, 30 and 60 minutes.
The results are described in Table 19, wherein the results describe the Ke, i.e., the slope of the percentage decrease of the remaining amount of the compound, measured at each of the above time points, such that the higher the Ke the faster the metabolism.

## NCCCC[C@H](NC(=O)[C@@H](N)Cc1ccc(O)c(O)c1)C(=O)O [LD-Lys TFA salt, Levodopa Lysine TFA Salt] (H-[Dopa]-Lys-OH)
Human plasma [1]
  % Protein Bound 1st: 0.3%
  % Protein Bound 2nd: 18.7%
  % Protein Bound Mean: 10%
[2]; read-out: % Recovery 1st
  recovery at 10 μM: 79%
[2]; read-out: % Recovery 2nd
  recovery at 10 μM: 63%
[2]; read-out: % Recovery Mean
  recovery at 10 μM: 71%
Human plasma [3]
  % Protein Bound 1st: 59.5%
  % Protein Bound 2nd: 53.1%
  % Protein Bound Mean: 56%
[4]; read-out: % Recovery 1st
  recovery at 4 h, 10 μM: 12%
[4]; read-out: % Recovery 2nd
  recovery at 4 h, 10 μM: 19%
[4]; read-out: % Recovery Mean
  recovery at 4 h, 10 μM: 16%
In vitro; Caco-2, pH 7.4, Percent Recovery 1st
  recovery at 40 min, 10 μM: 79%
In vitro; Caco-2, pH 7.4, Percent Recovery 2nd
  recovery at 40 min, 10 μM: 86%
In vitro; Caco-2, pH 7.4, Percent Recovery Mean
  recovery at 40 min, 10 μM: 82%
In vitro; Caco-2, pH 7.4, Permeability 1st
  Papp B→A at 40 min, 10 μM: 0.03 ×10⁻⁶ cm/s
In vitro; Caco-2, pH 7.4, Permeability 2nd
  Papp B→A at 40 min, 10 μM: 0.03 ×10⁻⁶ cm/s
In vitro; Caco-2, pH 7.4, Permeability Mean
  Papp B→A at 40 min, 10 μM: < 0.03 ×10⁻⁶ cm/s
[5]
  Ke: 0.0655
